Assay results as given in patent US10081630B2, “Radioactive halogen-labeled pyrido [1,2-A] benzimidazole derivative compound” (KYOTO UNIVERSITY, priority 2015, dated 2018).

Tests used:
[1] = system: tau accumulated in the brain with AD; experiment: In vitro autoradiography using autopsied brain tissue of Alzheimer's disease patient; assay type: binding, human
Protocol: (Evaluation 1) In Vitro Autoradiography Using Autopsied Brain Tissue of Alzheimer's Disease Patient (1) In Vitro Autoradiography
Autopsied brain tissue sections of an Alzheimer's disease (AD) patient (sections from a frontal lobe site and a temporal lobe site, 6 μm) were used, which were provided from Graduate School of Medicine, Kyoto University and National Cerebral and Cardiovascular Center Hospital. Deparaffinization treatment was performed by washing with xylene (15 min×2), ethanol (1 min×2), a 90 vol % aqueous ethanol solution (1 min×1), an 80 vol % aqueous ethanol solution (1 min×1), a 70 vol % aqueous ethanol solution (1 min×1), and purified water (2.5 min×2). A 10 vol % aqueous ethanol solution of each radioactive iodine-labeled BIP derivative compound (370 kBq/mL) obtained by the method shown in Example 7 was added thereto, and the tissue sections were incubated at room temperature for 2 hours. The tissue sections were washed with a 50 vol % aqueous ethanol solution (1 hr×1), then exposed to an imaging plate (BAS-SR2025 manufactured by Fujifilm Corp.), and analyzed using a bioimaging analyzer (bioimaging analyzer BAS-5000 manufactured by Fujifilm Corp.). Multi Gauge manufactured by Fujifilm Corp. was used in quantitative analysis.
FIGS. 5E and 5F show the results obtained using [^125I]BIP-NMe2. FIGS. 5G and 5H show the results obtained using [^125I]BIP-OMe. FIGS. 5I and 5J show the results obtained using [^125I]BIP-Me. FIGS. 5E, 5G, and 5I show the results obtained using the brain tissue section of the frontal lobe. FIGS. 5F, 5H, and 5J show the results obtained using the brain tissue section of the temporal lobe.
Tau and Aβ were immunostained using sections adjacent to the autopsied AD brain tissue sections used in autoradiography. An anti-phosphorylated tau monoclonal antibody (AT8, manufactured by Thermo Fisher Scientific Inc.) was used as a primary antibody in the immunostaining of tau, and an anti-Aβ1-42 monoclonal antibody (BC05, manufactured by Wako Pure Chemical Industries, Ltd.) was used as a primary antibody in the immunostaining of Aβ. Deparaffinization treatment was performed by washing with xylene (15 min×2), ethanol (1 min×2), a 90 vol % aqueous ethanol solution (1 min×1), an 80 vol % aqueous ethanol solution (1 min×1), a 70 vol % aqueous ethanol solution (1 min×1), and purified water (2.5 min×2). The antigens were retrieved by autoclaving (15 min) in a 0.01 mol/L citrate buffer solution (pH 6.0) and formic acid treatment (5 min). The tissue sections were washed with running water (5 min) and then washed with PBS-Tween 20 (2 min×1). The tissue sections were reacted with primary antibody solutions at room temperature for 1 hour and then washed with PBS-Tween 20 (5 min×3). The tissue sections were reacted with Histofine Simple Stain MAX-PO (MULTI) (manufactured by Nichirei Biosciences Inc.) at room temperature for 30 minutes and then washed with PBS-Tween 20 (3 min×3) and TBS (5 min×1). Finally, the tissue sections were reacted with a DAB solution at room temperature for 1 minute. The tissue sections were washed with distilled water (1 min×1) to terminate the reaction. The brain tissue sections were mounted on slides and then observed under a microscope (BZ-9000 manufactured by Keyence Corporation).
FIGS. 5A and 5B show the results obtained using the brain tissue section of the frontal lobe. FIGS. 5C and 5D show the results obtained using the brain tissue section of the temporal lobe. FIGS. 5A and 5C show the results of immunostaining with the antibody against tau. FIGS. 5B and 5D show the results of immunostaining with the antibody against Aβ.

[2] = Evaluation of in vivo radioactivity distribution in normal mouse; settings: normal ddY male mice, tail vein; for radioactivity distribution, Blood / radioactivity distribution, Brain / radioactivity distribution, Heart / radioactivity distribution, Intestine / radioactivity distribution, Kidney / radioactivity distribution, Liver / radioactivity distribution, Lung / radioactivity distribution, Pancreas / radioactivity distribution, Spleen / radioactivity distribution, Stomach / radioactivity distribution, Thyroid gland: mean (SD)
Protocol: (Evaluation 2) Evaluation of In Vivo Radioactivity Distribution in Normal Mouse
Each compound of [^125I]BIP-NMe2, [^125I]BIP-OMe, and [^125I]BIP-Me synthesized according to the method shown in Example 7 was diluted with saline containing 10 vol % ethanol and 0.1 vol % Tween 80. Each radioactive iodine-labeled BIP derivative compound was administered to a group of 5-week-old ddY male mice (26 to 28 g; each group involved 5 mice) from the tail veins thereof at 19.6 to 29.4 kBq (100 μL) per mouse. After 2, 10, 30, or 60 minutes, the mice were slaughtered. After blood collection, the organs were taken out, and their weights and radioactivity were measured.
In Tables 2 to 4, the numerical values shown in the column “Time after administration” are means of % ID for the stomach and the thyroid gland and means of % ID/g for the other tissues with standard deviation (SD) shown in parenthesis.

## COc1ccn2c(c1)nc1cc([125I])ccc12 [[^125I]BIP-OMe, 7-[^125I]iodo-3-methoxypyrido[1,2-a]benzimidazole]
[1]; AD patient autopsied brain section, frontal lobe, 370 kBq/mL, 2 hours room temperature
  radioactivity accumulation in the brain tissue section of the frontal lobe: none
[1]; AD patient autopsied brain section, temporal lobe, 370 kBq/mL, 2 hours room temperature
  radioactivity accumulation in the brain tissue section of the temporal lobe: exhibited radioactivity accumulation in only the brain tissue section of the temporal lobe
[1]; AD patient autopsied brain sections
  nonspecific binding to the brain white matter: low
[1]; AD patient temporal lobe section, adjacent sections immunostained (AT8, BC05)
  visualization of tau (autoradiography compared with tau and Aβ immunostaining): clearly visualizes tau accumulated in the brain with AD
[2]
  clearance from the brain: rapid clearance from the brain
  transfer to the brain early after administration: high transfer to the brain
[2]; 2 min after administration
  radioactivity distribution, Blood: 5.41(0.40) % ID/g
  radioactivity distribution, Brain: 4.30(0.41) % ID/g
  radioactivity distribution, Heart: 5.17(0.27) % ID/g
  radioactivity distribution, Intestine: 2.94(0.15) % ID/g
  radioactivity distribution, Kidney: 8.66(0.73) % ID/g
  radioactivity distribution, Liver: 17.8(3.98) % ID/g
  radioactivity distribution, Lung: 6.09(0.34) % ID/g
  radioactivity distribution, Pancreas: 4.38(0.30) % ID/g
  radioactivity distribution, Spleen: 3.60(1.10) % ID/g
  radioactivity distribution, Stomach: 2.30(0.33) % ID
  radioactivity distribution, Thyroid gland: 0.10(0.05) % ID
[2]; 10 min after administration
  radioactivity distribution, Blood: 3.39(0.12) % ID/g
  radioactivity distribution, Brain: 0.71(0.14) % ID/g
  radioactivity distribution, Heart: 1.94(0.18) % ID/g
  radioactivity distribution, Intestine: 8.99(1.43) % ID/g
  radioactivity distribution, Kidney: 7.38(1.46) % ID/g
  radioactivity distribution, Liver: 16.2(1.80) % ID/g
  radioactivity distribution, Lung: 3.33(0.24) % ID/g
  radioactivity distribution, Pancreas: 1.59(0.18) % ID/g
  radioactivity distribution, Spleen: 3.16(0.18) % ID/g
  radioactivity distribution, Stomach: 5.47(0.88) % ID
  radioactivity distribution, Thyroid gland: 0.04(0.02) % ID
[2]; 30 min after administration
  radioactivity distribution, Blood: 2.24(0.27) % ID/g
  radioactivity distribution, Brain: 0.17(0.02) % ID/g
  radioactivity distribution, Heart: 0.99(0.08) % ID/g
  radioactivity distribution, Intestine: 16.8(4.30) % ID/g
  radioactivity distribution, Kidney: 5.74(2.30) % ID/g
  radioactivity distribution, Liver: 7.25(1.28) % ID/g
  radioactivity distribution, Lung: 1.76(0.11) % ID/g
  radioactivity distribution, Pancreas: 0.86(0.22) % ID/g
  radioactivity distribution, Spleen: 1.07(0.08) % ID/g
  radioactivity distribution, Stomach: 6.62(1.28) % ID
  radioactivity distribution, Thyroid gland: 0.01(0.00) % ID
[2]; 60 min after administration
  radioactivity distribution, Blood: 1.27(0.15) % ID/g
  radioactivity distribution, Brain: 0.08(0.03) % ID/g
  radioactivity distribution, Heart: 0.52(0.08) % ID/g
  radioactivity distribution, Intestine: 20.1(4.03) % ID/g
  radioactivity distribution, Kidney: 2.20(1.20) % ID/g
  radioactivity distribution, Liver: 4.61(0.35) % ID/g
  radioactivity distribution, Lung: 1.21(0.30) % ID/g
  radioactivity distribution, Pancreas: 0.53(0.13) % ID/g
  radioactivity distribution, Spleen: 0.63(0.10) % ID/g
  radioactivity distribution, Stomach: 5.34(1.23) % ID
  radioactivity distribution, Thyroid gland: 0.01(0.00) % ID
